Assay results reported in patent US20160009693A1, “HERBICIDAL COMPOUNDS” (SYNGENTA LIMITED, priority 2013, published 2016).

What was measured:
Format in all cases: in vivo
Conditions in all cases: applied at 1000 g/h, evaluated after 13 days
[1] = system: Alopecurus myosuroides (ALOMY); test: Herbicidal glasshouse test, pre-emergence, ALOMY
[2] = system: Setaria faberi (SETFA); test: Herbicidal glasshouse test, pre-emergence, SETFA
[3] = system: Echinochloa crus-galli (ECHCG); test: Herbicidal glasshouse test, pre-emergence, ECHCG
How it was run: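 In this pre-emergence glasshouse test, ECHCG seeds sown in pots of standard soil were sprayed one day after sowing with the test material in acetone/water (50:50) containing 0.5% Tween 20. Plants were kept at 24/16° C., 14 hours light, 65% humidity, and watered twice daily. Percentage damage was rated after 13 days on a 1–5 scale.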

[4] = system: Solanum nigrum (SOLNI); test: Herbicidal glasshouse test, pre-emergence, SOLNI
How it was run: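 This pre-emergence glasshouse herbicide test used Solanum nigrum sown in standard soil. One day after sowing, pots were sprayed with the compound in acetone/water (50:50) with 0.5% Tween 20. They were then grown at 24/16° C., with 14 hours light and 65% humidity, and watered twice daily. Percentage damage was scored after 13 days on a five point scale, where 5=80-100% and 1=0-19%.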

[5] = system: Amaranthus retoflexus (AMARE); test: Herbicidal glasshouse test, pre-emergence, AMARE
How it was run: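 This pre-emergence glasshouse herbicide test used Amaranthus retoflexus sown in standard soil. After one day of cultivation, an aqueous spray made from the technical ingredient in 50:50 acetone/water with 0.5% Tween 20 was applied. Pots stayed at 24/16° C., 14 hours light, 65% humidity, with twice-daily watering. Damage was rated on a five point scale (1=0-19% up to 5=80-100%).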

[6] = system: Ipomoea hederacea (IPOHE); test: Herbicidal glasshouse test, pre-emergence, IPOHE
[7] = system: Alopecurus myosuroides (ALOMY); test: Herbicidal glasshouse test, post-emergence, ALOMY
[8] = system: Setaria faberi (SETFA); test: Herbicidal glasshouse test, post-emergence, SETFA
How it was run: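 This post-emergence glasshouse herbicide test used potted Setaria faberi. Plants were cultivated for 8 days under controlled conditions (24/16° C. day/night, 14 hours light, 65% humidity) and then treated with an aqueous spray made from an acetone/water (50:50) solution containing 0.5% Tween 20. After 13 days of further growth with twice-daily watering, damage was rated on a five point scale (5=80-100%; 1=0-19%).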

[9] = system: Echinochloa crus-galli (ECHCG); test: Herbicidal glasshouse test, post-emergence, ECHCG
How it was run: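 In this post-emergence glasshouse test, barnyard grass (ECHCG) was cultivated for 8 days under controlled conditions (24/16° C. day/night, 14 hours light, 65% humidity). It was then sprayed with an aqueous solution of the technical compound in acetone / water (50:50) with 0.5% Tween 20. Plants were kept under the same conditions and watered twice daily. After 13 days, percentage damage was rated on a five point scale (5=80-100%; 1=0-19%).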

[10] = system: Solanum nigrum (SOLNI); test: Herbicidal glasshouse test, post-emergence, SOLNI
[11] = system: Amaranthus retoflexus (AMARE); test: Herbicidal glasshouse test, post-emergence, AMARE
How it was run: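 This post-emergence glasshouse test used AMARE plants raised in standard soil for 8 days under controlled conditions (24/16° C. day/night, 14 hours light, 65% humidity). Foliage was sprayed with formulated compound in acetone/water (50:50) containing 0.5% Tween 20. Plants were then watered twice daily, and after 13 days percentage damage was rated on a five point scale.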

[12] = system: Ipomoea hederacea (IPOHE); test: Herbicidal glasshouse test, post-emergence, IPOHE

SMILES | PRE Application ALOMY, percentage damage (five point scale) [1] | PRE Application SETFA, percentage damage (five point scale) [2] | PRE Application ECHCG, percentage damage (five point scale) [3] | PRE Application SOLNI, percentage damage (five point scale) [4] | PRE Application AMARE, percentage damage (five point scale) [5] | PRE Application IPOHE, percentage damage (five point scale) [6] | POST Application ALOMY, percentage damage (five point scale) [7] | POST Application SETFA, percentage damage (five point scale) [8] | POST Application ECHCG, percentage damage (five point scale) [9] | POST Application SOLNI, percentage damage (five point scale) [10] | POST Application AMARE, percentage damage (five point scale) [11] | POST Application IPOHE, percentage damage (five point scale) [12]
Cn1nnnc1NC(=O)c1nn(C)c(=O)n(Cc2ccc(C(F)(F)F)cc2)c1=O [Compound 1.057] | 5 (5=80-100%) | 1 (1=0-19%) | 5 (5=80-100%) | 3 (3=40-59%) | 5 (5=80-100%) | 4 (4=60-79%) | 5 (5=80-100%) | 1 (1=0-19%) | 4 (4=60-79%) | 5 (5=80-100%) | 5 (5=80-100%) | 5 (5=80-100%)
Cn1nnnc1NC(=O)c1nn(C)c(=O)n(Cc2ccccc2F)c1=O [Compound 1.058] | 5 (5=80-100%) | 5 (5=80-100%) | 5 (5=80-100%) | 5 (5=80-100%) | 5 (5=80-100%) | 5 (5=80-100%) | 5 (5=80-100%) | 5 (5=80-100%) | 5 (5=80-100%) | 5 (5=80-100%) | 5 (5=80-100%) | 5 (5=80-100%)
Cn1nnnc1NC(=O)c1nn(C)c(=O)n(Cc2ccccc2Cl)c1=O [Compound 1.059] | 5 (5=80-100%) | 2 (2=20-39%) | 5 (5=80-100%) | 5 (5=80-100%) | 5 (5=80-100%) | 5 (5=80-100%) | 5 (5=80-100%) | 4 (4=60-79%) | 4 (4=60-79%) | 5 (5=80-100%) | 5 (5=80-100%) | 5 (5=80-100%)
Cn1nnnc1NC(=O)c1nn(C)c(=O)n(Cc2ccccc2[N+](=O)[O-])c1=O [Compound 1.060] | 5 (5=80-100%) | 5 (5=80-100%) | 5 (5=80-100%) | 5 (5=80-100%) | 5 (5=80-100%) | 5 (5=80-100%) | 5 (5=80-100%) | 5 (5=80-100%) | 5 (5=80-100%) | 5 (5=80-100%) | 5 (5=80-100%) | 5 (5=80-100%)
Cn1nnnc1NC(=O)c1nn(C)c(=O)n(Cc2cc(F)ccc2F)c1=O [Compound 1.061] | 5 (5=80-100%) | 5 (5=80-100%) | 5 (5=80-100%) | 5 (5=80-100%) | 5 (5=80-100%) | 5 (5=80-100%) | 5 (5=80-100%) | 5 (5=80-100%) | 5 (5=80-100%) | 5 (5=80-100%) | 5 (5=80-100%) | 5 (5=80-100%)
Cn1nnnc1NC(=O)c1nn(C)c(=O)n(Cc2ccccc2C(F)(F)F)c1=O [Compound 1.062] | 5 (5=80-100%) | 5 (5=80-100%) | 5 (5=80-100%) | 5 (5=80-100%) | 5 (5=80-100%) | 5 (5=80-100%) | 5 (5=80-100%) | 5 (5=80-100%) | 5 (5=80-100%) | 5 (5=80-100%) | 5 (5=80-100%) | 5 (5=80-100%)
Cn1nnnc1NC(=O)c1nn(C)c(=O)n(Cc2cccc(F)c2)c1=O [Compound 1.063] | 5 (5=80-100%) | 4 (4=60-79%) | 5 (5=80-100%) | 5 (5=80-100%) | 5 (5=80-100%) | 5 (5=80-100%) | 5 (5=80-100%) | 4 (4=60-79%) | 5 (5=80-100%) | 5 (5=80-100%) | 5 (5=80-100%) | 5 (5=80-100%)
Cn1nnnc1NC(=O)c1nn(C)c(=O)n(Cc2ccc(F)c(F)c2)c1=O [Compound 1.064] | 5 (5=80-100%) | 1 (1=0-19%) | 5 (5=80-100%) | 5 (5=80-100%) | 5 (5=80-100%) | 5 (5=80-100%) | 2 (2=20-39%) | 2 (2=20-39%) | 5 (5=80-100%) | 5 (5=80-100%) | 5 (5=80-100%) | 5 (5=80-100%)
